Results published in patent publication US20150125889A1, “IN VITRO DETECTION OF MICROORGANISMS WITH AZOREDUCTASE ACTIVITY” (BIOMÉRIEUX, priority 2012, published 2015).

Tests used:
Experiment in all cases: Reduction of azo substrates over 24 hours at 35° C., microtitration plate (Example 1)
Assay type in all cases: cell-based
[1] = system: Acinetobacter baumanii; design: key to RED (substrate reduced or not): RED indicates whether the substrate is reduced (Y) or not (N); RED indicates whether the substrate is reduced (Y) or not (N); key to Decol (substrate decolourized, decrease in absorbance) / Fluo (fluorescence multiplied by 2 relative to substrate-free control) / Co (growth, absorbance at 660 nm): The symbol “+” means good growth/decolourization/significant increase in fluorescence; The symbol “+/−” means difficult growth; The symbol “−” means that there is no growth/decolourization/significant increase in fluorescence; conditions: A. baumannii, substrate 35 mg/l
Outline: (§1)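 Each species is represented by a single strain inoculated at 0.5 McFarland into Trypcase soya broth with substrate at 35 mg/l. Plates are read continuously at 35° C. over 24 hours. A substrate counts as reduced when absorbance falls or fluorescence doubles relative to a substrate-free control.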

[2] = system: Enterococcus faecalis; design: key to RED (substrate reduced or not): RED indicates whether the substrate is reduced (Y) or not (N); RED indicates whether the substrate is reduced (Y) or not (N); key to Decol (substrate decolourized, decrease in absorbance) / Fluo (fluorescence multiplied by 2 relative to substrate-free control) / Co (growth, absorbance at 660 nm): The symbol “+” means good growth/decolourization/significant increase in fluorescence; The symbol “+/−” means difficult growth; The symbol “−” means that there is no growth/decolourization/significant increase in fluorescence; conditions: E. faecalis, substrate 35 mg/l
Outline: as §1

[3] = system: Kocuria rosea; design: key to RED (substrate reduced or not): RED indicates whether the substrate is reduced (Y) or not (N); RED indicates whether the substrate is reduced (Y) or not (N); key to Co (growth, absorbance at 660 nm) / Decol (substrate decolourized, decrease in absorbance) / Fluo (fluorescence multiplied by 2 relative to substrate-free control): The symbol “+” means good growth/decolourization/significant increase in fluorescence; The symbol “+/−” means difficult growth; The symbol “−” means that there is no growth/decolourization/significant increase in fluorescence; conditions: K. rosea, substrate 35 mg/l
Outline: as §1

[4] = system: Staphylococcus aureus; design: key to RED (substrate reduced or not): RED indicates whether the substrate is reduced (Y) or not (N); RED indicates whether the substrate is reduced (Y) or not (N); key to Co (growth, absorbance at 660 nm) / Decol (substrate decolourized, decrease in absorbance) / Fluo (fluorescence multiplied by 2 relative to substrate-free control): The symbol “+” means good growth/decolourization/significant increase in fluorescence; The symbol “+/−” means difficult growth; The symbol “−” means that there is no growth/decolourization/significant increase in fluorescence; conditions: S. aureus, substrate 35 mg/l
Outline: as §1

[5] = system: Pseudomonas aeruginosa; design: key to RED (substrate reduced or not): RED indicates whether the substrate is reduced (Y) or not (N); RED indicates whether the substrate is reduced (Y) or not (N); key to Co (growth, absorbance at 660 nm) / Decol (substrate decolourized, decrease in absorbance) / Fluo (fluorescence multiplied by 2 relative to substrate-free control): The symbol “+” means good growth/decolourization/significant increase in fluorescence; The symbol “+/−” means difficult growth; The symbol “−” means that there is no growth/decolourization/significant increase in fluorescence; conditions: P. aeruginosa, substrate 35 mg/l
Outline: as §1

[6] = system: Candida albicans; design: key to RED (substrate reduced or not): RED indicates whether the substrate is reduced (Y) or not (N); RED indicates whether the substrate is reduced (Y) or not (N); key to Co (growth, absorbance at 660 nm) / Decol (substrate decolourized, decrease in absorbance) / Fluo (fluorescence multiplied by 2 relative to substrate-free control): The symbol “+” means good growth/decolourization/significant increase in fluorescence; The symbol “+/−” means difficult growth; The symbol “−” means that there is no growth/decolourization/significant increase in fluorescence; conditions: substrate 35 mg/l
Outline: as §1

[7] = system: Staphylococcus epidermidis; design: key to RED (substrate reduced or not): RED indicates whether the substrate is reduced (Y) or not (N); RED indicates whether the substrate is reduced (Y) or not (N); key to Co (growth, absorbance at 660 nm) / Decol (substrate decolourized, decrease in absorbance) / Fluo (fluorescence multiplied by 2 relative to substrate-free control): The symbol “+” means good growth/decolourization/significant increase in fluorescence; The symbol “+/−” means difficult growth; The symbol “−” means that there is no growth/decolourization/significant increase in fluorescence; conditions: S. epidermidis, substrate 35 mg/l
Outline: as §1

[8] = system: Cronobacter muytjensii; design: key to RED (substrate reduced or not): RED indicates whether the substrate is reduced (Y) or not (N); RED indicates whether the substrate is reduced (Y) or not (N); key to Co (growth, absorbance at 660 nm) / Decol (substrate decolourized, decrease in absorbance) / Fluo (fluorescence multiplied by 2 relative to substrate-free control): The symbol “+” means good growth/decolourization/significant increase in fluorescence; The symbol “+/−” means difficult growth; The symbol “−” means that there is no growth/decolourization/significant increase in fluorescence; conditions: E. muytjensii, substrate 35 mg/l
Outline: as §1

[9] = system: Geotrichum candidum; design: key to RED (substrate reduced or not): RED indicates whether the substrate is reduced (Y) or not (N); RED indicates whether the substrate is reduced (Y) or not (N); key to Co (growth, absorbance at 660 nm) / Decol (substrate decolourized, decrease in absorbance) / Fluo (fluorescence multiplied by 2 relative to substrate-free control): The symbol “+” means good growth/decolourization/significant increase in fluorescence; The symbol “+/−” means difficult growth; The symbol “−” means that there is no growth/decolourization/significant increase in fluorescence; conditions: G. candidum, substrate 35 mg/l
Outline: as §1

[10] = system: Escherichia coli; design: key to RED (substrate reduced or not): RED indicates whether the substrate is reduced (Y) or not (N); RED indicates whether the substrate is reduced (Y) or not (N); key to Co (growth, absorbance at 660 nm) / Decol (substrate decolourized, decrease in absorbance) / Fluo (fluorescence multiplied by 2 relative to substrate-free control): The symbol “+” means good growth/decolourization/significant increase in fluorescence; The symbol “+/−” means difficult growth; The symbol “−” means that there is no growth/decolourization/significant increase in fluorescence; conditions: E. coli, substrate 35 mg/l
Outline: as §1

Nc1ccc(/N=N/c2ccc(S(=O)(=O)O)cc2)cc1S(=O)(=O)O [4-aminoazobenzene-3,4′-disulfonic acid, 4-Aminoazobenzene-3,4′-disulfonic acid]
Co (growth, absorbance at 660 nm) [1]: +
Decol (substrate decolourized, decrease in absorbance) [1]: −
Fluo (fluorescence multiplied by 2 relative to substrate-free control) [1]: −
RED (substrate reduced or not) [1]: N
Co (growth, absorbance at 660 nm) [2]: +
Decol (substrate decolourized, decrease in absorbance) [2]: +
Fluo (fluorescence multiplied by 2 relative to substrate-free control) [2]: +
RED (substrate reduced or not) [2]: Y
Co (growth, absorbance at 660 nm) [3]: −
Decol (substrate decolourized, decrease in absorbance) [3]: −
Fluo (fluorescence multiplied by 2 relative to substrate-free control) [3]: −
Co (growth, absorbance at 660 nm) [4]: +
Decol (substrate decolourized, decrease in absorbance) [4]: −
Fluo (fluorescence multiplied by 2 relative to substrate-free control) [4]: −
RED (substrate reduced or not) [4]: N
Co (growth, absorbance at 660 nm) [5]: +
Decol (substrate decolourized, decrease in absorbance) [5]: −
Fluo (fluorescence multiplied by 2 relative to substrate-free control) [5]: −
RED (substrate reduced or not) [5]: N
Co (growth, absorbance at 660 nm) [6]: +
Decol (substrate decolourized, decrease in absorbance) [6]: +
Fluo (fluorescence multiplied by 2 relative to substrate-free control) [6]: +
RED (substrate reduced or not) [6]: Y
Co (growth, absorbance at 660 nm) [7]: +
Decol (substrate decolourized, decrease in absorbance) [7]: −
Fluo (fluorescence multiplied by 2 relative to substrate-free control) [7]: −
RED (substrate reduced or not) [7]: N
Co (growth, absorbance at 660 nm) [8]: +
Decol (substrate decolourized, decrease in absorbance) [8]: −
Fluo (fluorescence multiplied by 2 relative to substrate-free control) [8]: −
RED (substrate reduced or not) [8]: N
Co (growth, absorbance at 660 nm) [9]: +
Decol (substrate decolourized, decrease in absorbance) [9]: −
Fluo (fluorescence multiplied by 2 relative to substrate-free control) [9]: −
RED (substrate reduced or not) [9]: N
Co (growth, absorbance at 660 nm) [10]: +
Decol (substrate decolourized, decrease in absorbance) [10]: −
Fluo (fluorescence multiplied by 2 relative to substrate-free control) [10]: −
RED (substrate reduced or not) [10]: N

Oc1ccc2ccccc2c1/N=N/c1ccc(/C=C/c2ccnc3ccccc23)cc1 [BF38, 4″-Quinoline-4′-styryl-azo-2-Hydroxynaphthol]
Co (growth, absorbance at 660 nm) [1]: +
Decol (substrate decolourized, decrease in absorbance) [1]: −
Fluo (fluorescence multiplied by 2 relative to substrate-free control) [1]: −
RED (substrate reduced or not) [1]: N
Co (growth, absorbance at 660 nm) [2]: +
Decol (substrate decolourized, decrease in absorbance) [2]: +
Fluo (fluorescence multiplied by 2 relative to substrate-free control) [2]: −
RED (substrate reduced or not) [2]: Y
Co (growth, absorbance at 660 nm) [3]: −
Decol (substrate decolourized, decrease in absorbance) [3]: −
Fluo (fluorescence multiplied by 2 relative to substrate-free control) [3]: −
Co (growth, absorbance at 660 nm) [4]: +
Decol (substrate decolourized, decrease in absorbance) [4]: +
Fluo (fluorescence multiplied by 2 relative to substrate-free control) [4]: −
RED (substrate reduced or not) [4]: Y
Co (growth, absorbance at 660 nm) [5]: +
Decol (substrate decolourized, decrease in absorbance) [5]: +
Fluo (fluorescence multiplied by 2 relative to substrate-free control) [5]: −
RED (substrate reduced or not) [5]: Y
Co (growth, absorbance at 660 nm) [6]: +
Decol (substrate decolourized, decrease in absorbance) [6]: −
Fluo (fluorescence multiplied by 2 relative to substrate-free control) [6]: −
RED (substrate reduced or not) [6]: N
Co (growth, absorbance at 660 nm) [7]: +
Decol (substrate decolourized, decrease in absorbance) [7]: +
Fluo (fluorescence multiplied by 2 relative to substrate-free control) [7]: −
RED (substrate reduced or not) [7]: Y
Co (growth, absorbance at 660 nm) [8]: +
Decol (substrate decolourized, decrease in absorbance) [8]: +
Fluo (fluorescence multiplied by 2 relative to substrate-free control) [8]: −
RED (substrate reduced or not) [8]: Y
Co (growth, absorbance at 660 nm) [9]: +
Decol (substrate decolourized, decrease in absorbance) [9]: −
Fluo (fluorescence multiplied by 2 relative to substrate-free control) [9]: −
RED (substrate reduced or not) [9]: N
Co (growth, absorbance at 660 nm) [10]: +
Decol (substrate decolourized, decrease in absorbance) [10]: +
Fluo (fluorescence multiplied by 2 relative to substrate-free control) [10]: −
RED (substrate reduced or not) [10]: Y
